The values that follow come from ChEMBL document CHEMBL5291721, “A preclinical secondary pharmacology resource illuminates target-adverse drug reaction associations of marketed drugs” (Nat Commun, 2023).

In one assay the target is T1, Androgen receptor (Rattus norvegicus, UniProt P15207).
T1 sequence (P15207 whole entry): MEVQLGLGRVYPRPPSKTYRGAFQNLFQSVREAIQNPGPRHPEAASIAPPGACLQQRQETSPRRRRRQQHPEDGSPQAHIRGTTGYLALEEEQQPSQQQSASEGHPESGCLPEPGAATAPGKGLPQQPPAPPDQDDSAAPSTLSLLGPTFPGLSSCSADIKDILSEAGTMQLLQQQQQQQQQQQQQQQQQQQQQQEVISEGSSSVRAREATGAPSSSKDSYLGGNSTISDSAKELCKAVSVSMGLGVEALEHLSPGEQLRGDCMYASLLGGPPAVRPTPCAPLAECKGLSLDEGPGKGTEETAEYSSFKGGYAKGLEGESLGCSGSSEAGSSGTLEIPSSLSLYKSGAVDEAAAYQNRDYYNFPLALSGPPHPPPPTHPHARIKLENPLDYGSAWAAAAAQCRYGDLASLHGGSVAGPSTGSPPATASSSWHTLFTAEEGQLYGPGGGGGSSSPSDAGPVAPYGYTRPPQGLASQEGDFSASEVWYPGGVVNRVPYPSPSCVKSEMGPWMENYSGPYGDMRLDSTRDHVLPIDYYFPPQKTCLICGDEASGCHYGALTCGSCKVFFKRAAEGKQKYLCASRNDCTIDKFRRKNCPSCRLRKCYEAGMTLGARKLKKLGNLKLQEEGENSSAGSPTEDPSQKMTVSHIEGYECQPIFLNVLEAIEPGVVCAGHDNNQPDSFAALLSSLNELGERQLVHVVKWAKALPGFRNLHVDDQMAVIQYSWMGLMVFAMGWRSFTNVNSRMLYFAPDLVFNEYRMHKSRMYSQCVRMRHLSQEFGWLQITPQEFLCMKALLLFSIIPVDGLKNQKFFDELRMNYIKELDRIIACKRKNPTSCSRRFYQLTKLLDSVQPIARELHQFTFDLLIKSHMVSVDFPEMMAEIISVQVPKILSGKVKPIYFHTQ
The class given is functional.

Assay [1] addresses Sodium channel protein type 5 subunit alpha (Homo sapiens, UniProt Q14524). In kind it is functional, cell-based.
A further assay has as its target T2, Substance-K receptor (Homo sapiens, UniProt P21452).
T2 sequence (P21452 whole entry): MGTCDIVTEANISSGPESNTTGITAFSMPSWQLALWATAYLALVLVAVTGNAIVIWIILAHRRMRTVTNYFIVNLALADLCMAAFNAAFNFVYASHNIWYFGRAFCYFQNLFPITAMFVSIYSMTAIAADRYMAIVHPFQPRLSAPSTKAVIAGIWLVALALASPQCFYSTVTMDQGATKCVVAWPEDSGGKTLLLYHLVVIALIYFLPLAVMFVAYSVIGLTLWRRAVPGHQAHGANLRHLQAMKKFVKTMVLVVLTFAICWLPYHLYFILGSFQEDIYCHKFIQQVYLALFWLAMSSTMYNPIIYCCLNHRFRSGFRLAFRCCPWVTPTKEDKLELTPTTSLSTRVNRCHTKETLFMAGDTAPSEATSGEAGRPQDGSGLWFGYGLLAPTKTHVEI

The target of assay [2] is Hydroxycarboxylic acid receptor 2 (Homo sapiens, UniProt Q8TDS4).
Assay [3] addresses T3, Muscarinic acetylcholine receptor M2 (Homo sapiens, UniProt P08172).
T3 sequence (P08172 whole entry): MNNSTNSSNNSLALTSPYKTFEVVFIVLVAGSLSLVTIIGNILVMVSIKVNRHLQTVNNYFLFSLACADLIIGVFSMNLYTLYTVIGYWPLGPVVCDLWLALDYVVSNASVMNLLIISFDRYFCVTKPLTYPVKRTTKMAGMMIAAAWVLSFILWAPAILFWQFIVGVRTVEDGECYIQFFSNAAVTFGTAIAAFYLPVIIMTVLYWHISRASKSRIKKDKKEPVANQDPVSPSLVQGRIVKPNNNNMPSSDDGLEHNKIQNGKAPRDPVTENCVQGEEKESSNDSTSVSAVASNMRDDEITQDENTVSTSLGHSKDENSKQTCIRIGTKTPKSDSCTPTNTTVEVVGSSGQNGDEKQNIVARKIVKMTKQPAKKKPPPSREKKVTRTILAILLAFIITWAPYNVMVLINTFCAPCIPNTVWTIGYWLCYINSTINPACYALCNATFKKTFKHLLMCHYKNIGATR

Assay [4] deals with T4, Peroxisome proliferator-activated receptor gamma (Homo sapiens, UniProt P37231).
T4 sequence (P37231 whole entry): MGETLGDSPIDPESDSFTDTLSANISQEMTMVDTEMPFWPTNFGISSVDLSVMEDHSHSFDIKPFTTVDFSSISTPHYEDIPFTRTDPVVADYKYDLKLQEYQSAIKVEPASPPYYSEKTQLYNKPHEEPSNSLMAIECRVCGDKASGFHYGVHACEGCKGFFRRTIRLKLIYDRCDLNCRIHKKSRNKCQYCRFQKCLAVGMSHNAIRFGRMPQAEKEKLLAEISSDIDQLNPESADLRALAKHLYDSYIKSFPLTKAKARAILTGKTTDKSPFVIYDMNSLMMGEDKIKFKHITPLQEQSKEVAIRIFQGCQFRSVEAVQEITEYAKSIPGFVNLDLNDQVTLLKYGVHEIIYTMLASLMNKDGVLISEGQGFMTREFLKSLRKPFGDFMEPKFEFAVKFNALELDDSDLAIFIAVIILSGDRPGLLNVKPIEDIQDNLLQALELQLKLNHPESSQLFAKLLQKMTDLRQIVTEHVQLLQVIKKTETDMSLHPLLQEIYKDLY
The class given is functional.

Assay [5] has as its target T4, Peroxisome proliferator-activated receptor gamma. The class given is functional. The source holds these as a separate data set.
The target of assay [6] is Synaptic vesicular amine transporter (Rattus norvegicus, UniProt Q01827). The class given is functional.
The target of a further assay is T5, Thromboxane A2 receptor (Homo sapiens, UniProt P21731).
T5 sequence (P21731 whole entry): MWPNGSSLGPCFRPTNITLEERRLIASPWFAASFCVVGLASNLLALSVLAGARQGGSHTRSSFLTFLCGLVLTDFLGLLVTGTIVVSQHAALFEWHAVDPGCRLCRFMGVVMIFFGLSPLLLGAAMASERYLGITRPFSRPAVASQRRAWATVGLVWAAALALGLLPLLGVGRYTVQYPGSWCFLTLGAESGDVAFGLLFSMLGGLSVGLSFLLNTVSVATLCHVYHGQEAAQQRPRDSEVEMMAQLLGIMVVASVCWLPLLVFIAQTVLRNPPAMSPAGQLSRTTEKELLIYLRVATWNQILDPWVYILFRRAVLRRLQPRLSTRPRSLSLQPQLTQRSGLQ
In kind it is functional.

In assay [7] the target is Vascular endothelial growth factor receptor 2 (Homo sapiens, UniProt P35968). The class given is functional.
In the next assay the target is D(1A) dopamine receptor (Homo sapiens, UniProt P21728). The class given is functional, cell-based.

Bounds are passed on as bounds.
Note: assay procedure not described here.

Synaptic vesicular amine transporter, sequence (Q01827 whole entry): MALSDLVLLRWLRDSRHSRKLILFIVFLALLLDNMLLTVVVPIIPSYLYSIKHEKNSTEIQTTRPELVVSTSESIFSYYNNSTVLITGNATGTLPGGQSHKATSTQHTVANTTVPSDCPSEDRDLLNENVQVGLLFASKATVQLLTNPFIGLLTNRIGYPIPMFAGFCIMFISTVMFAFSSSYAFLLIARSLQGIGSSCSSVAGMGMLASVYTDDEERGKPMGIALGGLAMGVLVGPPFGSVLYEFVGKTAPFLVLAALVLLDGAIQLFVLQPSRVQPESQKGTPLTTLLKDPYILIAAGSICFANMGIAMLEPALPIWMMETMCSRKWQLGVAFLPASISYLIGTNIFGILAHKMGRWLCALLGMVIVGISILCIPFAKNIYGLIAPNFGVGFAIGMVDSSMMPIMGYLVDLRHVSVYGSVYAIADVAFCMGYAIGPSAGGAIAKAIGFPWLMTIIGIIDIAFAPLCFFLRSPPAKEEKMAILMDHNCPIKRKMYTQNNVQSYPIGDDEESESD
Hydroxycarboxylic acid receptor 2, sequence (Q8TDS4 whole entry): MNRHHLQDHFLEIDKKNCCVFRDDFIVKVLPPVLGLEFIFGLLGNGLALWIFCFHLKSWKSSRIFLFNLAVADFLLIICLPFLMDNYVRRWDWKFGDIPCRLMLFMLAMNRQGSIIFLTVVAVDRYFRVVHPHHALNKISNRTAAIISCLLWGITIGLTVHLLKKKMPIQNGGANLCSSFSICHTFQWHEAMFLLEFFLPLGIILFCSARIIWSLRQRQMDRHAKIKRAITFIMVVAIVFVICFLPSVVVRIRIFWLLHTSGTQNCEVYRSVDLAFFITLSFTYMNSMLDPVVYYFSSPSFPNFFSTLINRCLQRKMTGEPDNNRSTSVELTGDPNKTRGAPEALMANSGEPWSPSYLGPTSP
D(1A) dopamine receptor, sequence (P21728 whole entry): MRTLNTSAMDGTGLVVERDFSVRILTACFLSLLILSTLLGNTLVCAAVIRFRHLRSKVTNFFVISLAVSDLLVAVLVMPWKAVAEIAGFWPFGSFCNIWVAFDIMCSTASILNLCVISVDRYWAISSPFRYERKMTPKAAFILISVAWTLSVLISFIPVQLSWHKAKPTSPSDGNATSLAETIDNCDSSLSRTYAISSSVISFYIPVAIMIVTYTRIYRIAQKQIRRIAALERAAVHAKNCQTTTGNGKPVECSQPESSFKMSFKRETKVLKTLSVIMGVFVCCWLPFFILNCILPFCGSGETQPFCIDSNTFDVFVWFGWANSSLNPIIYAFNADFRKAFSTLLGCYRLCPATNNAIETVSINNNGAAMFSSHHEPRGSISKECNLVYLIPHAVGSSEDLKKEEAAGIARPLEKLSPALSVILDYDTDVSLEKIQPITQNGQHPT
Sodium channel protein type 5 subunit alpha, sequence (Q14524 whole entry): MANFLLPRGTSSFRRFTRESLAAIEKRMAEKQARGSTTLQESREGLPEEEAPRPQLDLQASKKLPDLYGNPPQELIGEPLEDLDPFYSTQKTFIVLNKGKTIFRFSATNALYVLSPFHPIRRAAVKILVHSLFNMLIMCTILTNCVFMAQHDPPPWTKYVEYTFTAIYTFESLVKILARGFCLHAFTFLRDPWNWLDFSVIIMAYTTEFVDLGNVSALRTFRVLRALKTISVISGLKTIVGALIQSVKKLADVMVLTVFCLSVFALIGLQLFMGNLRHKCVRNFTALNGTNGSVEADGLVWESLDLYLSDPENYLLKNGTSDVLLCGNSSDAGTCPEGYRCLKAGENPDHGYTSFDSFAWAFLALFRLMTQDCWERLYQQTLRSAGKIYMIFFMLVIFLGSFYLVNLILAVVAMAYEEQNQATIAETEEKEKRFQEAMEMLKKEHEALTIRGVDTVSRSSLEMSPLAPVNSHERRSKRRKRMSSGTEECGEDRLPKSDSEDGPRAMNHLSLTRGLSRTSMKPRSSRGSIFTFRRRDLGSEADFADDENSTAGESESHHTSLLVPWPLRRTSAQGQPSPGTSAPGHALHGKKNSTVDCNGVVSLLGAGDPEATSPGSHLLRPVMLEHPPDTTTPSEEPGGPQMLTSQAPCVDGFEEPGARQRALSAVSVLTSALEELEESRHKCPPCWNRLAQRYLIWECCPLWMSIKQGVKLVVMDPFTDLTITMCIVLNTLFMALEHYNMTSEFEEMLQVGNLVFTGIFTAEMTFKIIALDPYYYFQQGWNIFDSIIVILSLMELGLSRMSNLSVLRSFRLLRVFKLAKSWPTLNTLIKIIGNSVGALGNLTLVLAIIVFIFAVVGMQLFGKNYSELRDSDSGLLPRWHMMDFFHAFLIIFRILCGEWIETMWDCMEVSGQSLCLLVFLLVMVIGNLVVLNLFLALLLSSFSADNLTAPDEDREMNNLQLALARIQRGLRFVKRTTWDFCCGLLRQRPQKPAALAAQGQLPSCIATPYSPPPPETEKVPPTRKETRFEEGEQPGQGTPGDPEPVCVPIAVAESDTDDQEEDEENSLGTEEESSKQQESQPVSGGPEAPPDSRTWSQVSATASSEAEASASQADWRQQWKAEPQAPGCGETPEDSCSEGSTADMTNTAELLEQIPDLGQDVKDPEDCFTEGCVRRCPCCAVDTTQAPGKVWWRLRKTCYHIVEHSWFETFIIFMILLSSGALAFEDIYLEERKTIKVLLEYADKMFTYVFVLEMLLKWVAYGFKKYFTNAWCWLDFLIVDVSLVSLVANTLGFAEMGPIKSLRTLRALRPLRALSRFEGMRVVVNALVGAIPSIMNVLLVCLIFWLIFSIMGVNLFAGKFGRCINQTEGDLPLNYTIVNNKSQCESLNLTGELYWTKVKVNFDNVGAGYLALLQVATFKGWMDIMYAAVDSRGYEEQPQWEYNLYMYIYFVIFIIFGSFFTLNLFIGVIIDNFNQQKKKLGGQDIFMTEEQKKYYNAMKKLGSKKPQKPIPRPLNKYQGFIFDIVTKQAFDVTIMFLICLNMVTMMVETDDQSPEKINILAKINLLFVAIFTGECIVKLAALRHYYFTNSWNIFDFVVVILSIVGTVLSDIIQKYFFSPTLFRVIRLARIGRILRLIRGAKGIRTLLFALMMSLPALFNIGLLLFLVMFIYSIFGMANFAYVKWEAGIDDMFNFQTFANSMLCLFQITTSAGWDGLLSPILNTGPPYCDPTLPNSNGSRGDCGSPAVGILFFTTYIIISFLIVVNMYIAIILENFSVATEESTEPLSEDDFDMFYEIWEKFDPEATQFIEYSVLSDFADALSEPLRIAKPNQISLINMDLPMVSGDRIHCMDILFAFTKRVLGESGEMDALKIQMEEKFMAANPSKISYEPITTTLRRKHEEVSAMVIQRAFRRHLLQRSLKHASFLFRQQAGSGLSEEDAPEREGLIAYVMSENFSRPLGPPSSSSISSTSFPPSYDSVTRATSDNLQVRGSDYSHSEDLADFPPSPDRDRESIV
Vascular endothelial growth factor receptor 2, sequence (P35968 whole entry): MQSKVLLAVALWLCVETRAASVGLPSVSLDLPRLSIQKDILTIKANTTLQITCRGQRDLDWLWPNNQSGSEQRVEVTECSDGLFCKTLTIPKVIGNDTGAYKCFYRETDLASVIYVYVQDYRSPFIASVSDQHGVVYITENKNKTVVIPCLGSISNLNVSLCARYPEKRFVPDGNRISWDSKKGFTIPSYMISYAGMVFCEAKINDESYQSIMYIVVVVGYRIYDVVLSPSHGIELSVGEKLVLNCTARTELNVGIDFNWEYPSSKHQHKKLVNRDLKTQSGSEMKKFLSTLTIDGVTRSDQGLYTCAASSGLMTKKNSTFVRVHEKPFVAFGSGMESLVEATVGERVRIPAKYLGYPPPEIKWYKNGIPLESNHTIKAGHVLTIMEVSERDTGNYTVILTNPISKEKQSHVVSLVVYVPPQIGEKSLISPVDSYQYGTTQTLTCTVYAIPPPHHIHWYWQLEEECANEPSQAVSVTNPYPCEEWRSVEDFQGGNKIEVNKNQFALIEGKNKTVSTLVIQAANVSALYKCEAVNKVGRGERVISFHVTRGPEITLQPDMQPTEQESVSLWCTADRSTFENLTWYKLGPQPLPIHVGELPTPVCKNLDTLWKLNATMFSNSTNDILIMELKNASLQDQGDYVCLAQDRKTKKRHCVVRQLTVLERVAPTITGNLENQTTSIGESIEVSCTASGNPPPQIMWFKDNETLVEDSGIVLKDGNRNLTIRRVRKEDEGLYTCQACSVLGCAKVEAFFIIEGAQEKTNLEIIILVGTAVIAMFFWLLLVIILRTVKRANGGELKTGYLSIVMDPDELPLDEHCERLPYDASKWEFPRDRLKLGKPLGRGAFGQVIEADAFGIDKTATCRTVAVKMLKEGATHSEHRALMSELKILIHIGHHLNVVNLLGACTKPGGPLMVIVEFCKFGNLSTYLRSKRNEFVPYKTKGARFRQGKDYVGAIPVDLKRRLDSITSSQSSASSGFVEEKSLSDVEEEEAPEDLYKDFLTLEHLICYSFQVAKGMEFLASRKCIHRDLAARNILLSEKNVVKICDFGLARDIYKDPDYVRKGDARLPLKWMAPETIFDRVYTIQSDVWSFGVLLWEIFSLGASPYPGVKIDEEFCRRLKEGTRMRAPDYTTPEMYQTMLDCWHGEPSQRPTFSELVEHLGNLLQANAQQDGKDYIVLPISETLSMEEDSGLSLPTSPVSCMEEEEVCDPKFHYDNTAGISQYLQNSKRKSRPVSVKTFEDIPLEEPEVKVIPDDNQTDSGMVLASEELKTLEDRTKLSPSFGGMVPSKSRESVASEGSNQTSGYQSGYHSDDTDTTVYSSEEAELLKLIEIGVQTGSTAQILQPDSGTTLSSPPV

Broadly, the AC50 is the concentration at which the activity in the assay is half-maximal. A higher AC50 goes with weaker potency. Turning to `CCCC(=O)N1CCCN(c2nc(N)c3cc(OC)c(OC)cc3n2)CC1` [BUNAZOSIN], the AC50 on Androgen receptor was greater than 30 µM.

In [1], `O=P(O)(O)C(O)(Cc1cccnc1)P(=O)(O)O` [RISEDRONIC ACID] showed an AC50 greater than 30 µM.

`CN(C)CCCN1c2ccccc2Sc2ccccc21` [PROMAZINE] came in with an AC50 at Substance-K receptor greater than 10 µM.

In assay [2], `O=C1CCC(N2C(=O)c3ccccc3C2=O)C(=O)N1` (configuration not stated) [THALIDOMIDE] displayed an AC50 greater than 10 µM.

`CC(=O)OC(C)C[N+](C)(C)C` (configuration not stated) [METHACHOLINE] registered an AC50 in assay [3] of 9.7 µM.

With `CC(=O)O[C@]1(C(C)=O)CC[C@H]2[C@@H]3C[C@H](C)C4=CC(=O)CC[C@]4(C)[C@H]3CC[C@@]21C` [MEDROXYPROGESTERONE ACETATE], the concentration at half-maximal activity (AC50) in assay [4] and in assay [5] was greater than 30 µM in each case.

In assay [6], `COc1cc2c(cc1OC)[C@H]1C[C@@H](OC(=O)[C@@H](N)C(C)C)[C@H](CC(C)C)CN1CC2` [VALBENAZINE] returned an AC50 of 0.46 µM.

Turning to `O=C(Nc1ccccc1)OCC(CN1CCCCC1)OC(=O)Nc1ccccc1` (configuration not stated) [DIPERODON], the AC50 at Thromboxane A2 receptor was greater than 30 µM; on Substance-K receptor it was greater than 10 µM; in assay [7], greater than 30 µM.

On D(1A) dopamine receptor, `C[N+](C)(C)CCOC(N)=O` [CARBAMOYLCHOLINE] displayed an AC50 greater than 30 µM.
